# Source: paper PMC9885530, “Identification of Natural Products Inhibiting SARS-CoV-2 by Targeting Viral Proteases: A Combined in Silico and in Vitro Approach” (Journal of Natural Products, 2023)
# Several values for one entry are separate records, joined by “and”; a condition that tells them apart may be missing. Equal entries are not always repeated. Where two headings read alike, the source gives them in different places.
# Experiments:
# [1] = biological target: T1, M^pro (Severe acute respiratory syndrome coronavirus 2, UniProt P0DTD1); experiment: Competitive 1H CPMG relaxation dispersion NMR with compound 4 as reporter ligand; assay type: binding, SARS-CoV-2; settings: competition with compound 4
# [2] = test system: SARS-CoV-2; experiment: Antiviral assay in Calu-3 cells (spike staining); assay type: cell-based
# [3] = Cytotoxicity in Calu-3 cells; settings: human
# [4] = biological target: SARS-CoV-2 M^pro (Severe acute respiratory syndrome coronavirus 2, UniProt P0DTD1); experiment: biochemical; assay type: biochemical; settings: buffer with 5 mM DTT; for IC50: read-out: SARS-CoV-2 M^pro IC50; for inhibition at 20 µM: 20 μM compound, for values marked a the relative standard deviation of 6% applies, read-out: SARS-CoV-2 M^pro enzyme inhibition (%) 20 μM; for inhibition at 100 µM: 100 μM compound, read-out: SARS-CoV-2 M^pro enzyme inhibition (%) 100 μM
# [5] = biological target: T1, M^pro; assay type: binding; settings: 2 μM protein, 50 μM ligand
# [6] = in vitro; settings: human, Caco-2
# [7] = biological target: T2, SARS-CoV-2 PLpro (Severe acute respiratory syndrome coronavirus 2, UniProt P0DTD1); experiment: biochemical; set-up: papain-like protease (PL^pro; domain of nsp3); purchased Anaspec (Fremont, USA) AS-72263; settings: for SARS-CoV-2 PLpro inhibition % enzyme inhibition (20 µM): commercial Anaspec assay kit; for inhibition at 20 µM: read-out: SARS-CoV-2 PLpro inhibition % enzyme inhibition (20 µM)
# [8] = biological target: T2, SARS-CoV-2 PLpro; experiment: PL^pro fluorogenic peptide cleavage assay (substrate Z-RLRGG-AMC); assay type: biochemical; set-up: papain-like protease (PL^pro; domain of nsp3); His; purchased BPS Biosciences BPS-100735-1
# [9] = test system: SARS-CoV-2; experiment: Antiviral assay in Caco-2 cells; assay type: cell-based
# [10] = in vitro; settings: human
# [11] = test system: M^pro; settings: read-out: M^pro IC50 previously reported, cited from earlier work
# [12] = Cytotoxicity in Caco-2 cells; settings: human
# [13] = Severe acute respiratory syndrome coronavirus 2, Calu-3 cells, MOI 0.01, 48 h postinfection, read-out: Anti-SARS-CoV-2 activity IC50
SMILES,displacement of reporter ligand 4 from M^pro (CPMG-RD) [1],"IC50 [2, 13]",CC50 [3],IC50 [4],STD signals [5],SARS-CoV-2 PLpro inhibition % enzyme inhibition (20 µM) [7],inhibition at 20 µM [7],CC50 [10],inhibition at 20 µM [4],inhibition at 100 µM [4],also measured
"CC(C)=CC[C@@]12Oc3cc(O)c([C@H]4C=C(C)C[C@H](c5ccc(O)cc5O)[C@H]4C(=O)c4ccc(O)cc4O)c(O)c3C(=O)[C@]1(O)Oc1cc(O)ccc12 [Compound 13, sanggenon O]",did not significantly displace 4,8 µM,24.9 µM,6.7 µM,no STD signals were detected,–,–,–,–,–,–
COc1ccc2c(=O)c(Oc3ccc(C(=O)NC(C)Cc4c[nH]c5ccccc45)cc3)coc2c1 (stereo not shown) [Compound 42],–,–,–,–,–,significant enzyme inhibition,82.3 ± 25.3%,> 100 µM,–,–,"CC50 [6]: > 100 µM; IC50 ([2]; Severe acute respiratory syndrome coronavirus 2, Calu-3, 48 h, read-out: Anti-SARS-CoV-2 activity IC50 (μM)): > 100 µM; inhibition at 20 µM ([8]; read-out: SARS-CoV-2 PL^pro enzyme inhibition (%) 20 μM): 4.89 ± 1.3%; inhibition at 100 µM ([8]; read-out: SARS-CoV-2 PL^pro enzyme inhibition (%) 100 μM): 8.8 ± 7%; IC50 ([9]; Severe acute respiratory syndrome coronavirus 2, Caco-2 cells, read-out: Anti SARS-CoV-2 activity Caco-2 IC50): 7.1 µM"
"CC(C)=CC[C@]12Oc3cc(O)c([C@H]4C=C(C)C[C@H](c5ccc(O)cc5O)[C@H]4C(=O)c4ccc(O)cc4O)c(O)c3C(=O)[C@@]1(O)Oc1cc(O)ccc12 [Compound 12, sanggenon C]",displacement from the binding site,4.6 µM,23.6 µM,7.24 µM and 7.2 µM,no STD signals were detected,–,–,–,–,–,–
"O=c1cc(-c2ccccc2)oc2cc(O)c(O)c(O)c12 [Compound 4, baicalein, reference compound]",–,–,–,–,–,–,–,–,8.6%,90 ± 1.4%,IC50 [11]: 0.98 µM
"CC(=O)O[C@H](CC=C(C)C)C1=CC(=O)c2c(O)ccc(O)c2C1=O [Compound 30, acetylshikonin]",–,> 100 µM,> 100 µM,–,–,significant enzyme inhibition,100 ± 9.5%,–,–,–,"IC50 ([8]; Z-RLRGG-AMC substrate): 24.3 µM; CC50 [12]: 65.8 µM; IC50 ([11]; reported inhibition later described as assay artifact (ref 34)): 3.8 µM; IC50 ([9]; Severe acute respiratory syndrome coronavirus 2, Caco-2, read-out: Anti SARS-CoV-2 activity Caco-2 IC50 (µM)): > 100 µM"
"CC(C)=CCCC1=C[C@H](c2c(O)cc3c(c2O)C(=O)C[C@@H](c2ccc(O)cc2O)O3)[C@@H](C(=O)c2ccc(O)cc2O)[C@H](c2ccc(O)cc2O)C1 [Compound 15, sanggenon G]",displacement from the binding site,7.6 µM,–,4.82 µM and 4.8 µM,no STD signals were detected,–,–,49.1 µM,92.6%,99.6 ± 0.2%,"selectivity index (SI) ([2]; Calu-3 cells, cytotoxicity vs anti-SARS-CoV-2 activity): 6.5 and > 5"
